Measured values: publication PMC11971462, “Generation and validation of a novel multitarget small molecule in glioblastoma” (Cell Death & Disease, 2025)

System: GNS166 cells
Test: Label-free proteomics differential expression
Format: cell-based, human
Description: Proteomic studies were performed by the Proteomics Facility of the CIC bioGUNE by label-free relative quantification on nLC MS/MS. […] In both approaches, the top 20 enriched terms were plotted and the pathways were clustered using divisive hierarchical clustering based on pairwise Jaccard distances.

C#CCN(Cc1cc2cc(OCCCN3CCCCC3)ccc2n1S(=O)(=O)c1ccccc1)C(=O)CCCCCCC(=O)NO [DDI]
LogFC STOM_HUMAN (protein P27105 GN=STOM): 1.045
LogFC CD82_HUMAN (protein P27701 GN=CD82): -1.866
Direction PYR1_HUMAN (protein P27708): Down
LogFC PYR1_HUMAN (protein P27708): -0.3818
LogFC GSTM2_HUMAN (protein P28161 GN=GSTM2): 1.203
Direction DPOD1_HUMAN (protein P28340): Down
LogFC DPOD1_HUMAN (protein P28340): -0.5649
LogFC GRAN_HUMAN (protein P28676 GN=GCA): 2.772
Direction CD34_HUMAN (protein P28906): Down
LogFC CD34_HUMAN (protein P28906): -1.0921
LogFC TPP2_HUMAN (protein P29144 GN=TPP2): 0.5124
LogFC CCN2_HUMAN (protein P29279 GN=CCN2): 1.704
Direction EPHA2_HUMAN (protein P29317): Down
LogFC EPHA2_HUMAN (protein P29317): -1.4702
LogFC AL4A1_HUMAN (protein P30038 GN=ALDH4A1): 0.9924
LogFC BLVRB_HUMAN (protein P30043 GN=BLVRB): 1.9711
LogFC CDC27_HUMAN (protein P30260 GN=CDC27): -0.6942
LogFC CCND3_HUMAN (protein P30281 GN=CCND3): 1.575
Direction NMT1_HUMAN (protein P30419): Down
LogFC NMT1_HUMAN (protein P30419): -0.6586
Direction UFO_HUMAN (protein P30530): Down
LogFC UFO_HUMAN (protein P30530): -2.709
Direction ILEU_HUMAN (protein P30740): Down
LogFC ILEU_HUMAN (protein P30740): -0.3615
Direction RIR2_HUMAN (protein P31350): Down
LogFC RIR2_HUMAN (protein P31350): -2.735
Direction DNJA1_HUMAN (protein P31689): Down
LogFC DNJA1_HUMAN (protein P31689): -0.6634
LogFC AKT1_HUMAN (protein P31749 GN=AKT1): -0.2725
Direction TF2H1_HUMAN (protein P32780): Down
LogFC TF2H1_HUMAN (protein P32780): -0.6552
LogFC TTK_HUMAN (protein P33981 GN=TTK): -1.092
LogFC VATE1_HUMAN (protein P36543 GN=ATP6V1E1): 1.641
LogFC PP1G_HUMAN (protein P36873 GN=PPP1CC): 0.989
LogFC GNL1_HUMAN (protein P36915 GN=GNL1): 0.9003
Direction COIL_HUMAN (protein P38432): Down
LogFC COIL_HUMAN (protein P38432): -1.999
LogFC LICH_HUMAN (protein P38571 GN=LIPA): 4.157
LogFC VATA_HUMAN (protein P38606 GN=ATP6V1A): 1.1187
Direction COIA1_HUMAN (protein P39060): Down
LogFC COIA1_HUMAN (protein P39060): -1.248
LogFC MDHC_HUMAN (protein P40925 GN=MDH1): 0.224
LogFC IF2G_HUMAN (protein P41091 GN=EIF2S3): 0.129
LogFC EIF2D_HUMAN (protein P41214 GN=EIF2D): -1.485
Direction UBA7_HUMAN (protein P41226): Down
LogFC UBA7_HUMAN (protein P41226): -1.657
LogFC IPP2_HUMAN (protein P41236 GN=PPP1R2): 1.34
LogFC CSK_HUMAN (protein P41240 GN=CSK): -0.3935
LogFC LAP2A_HUMAN (protein P42166 GN=TMPO): -1.129
LogFC LAP2B_HUMAN (protein P42167 GN=TMPO): -0.9256
LogFC STAT1_HUMAN (protein P42224 GN=STAT1): 0.5798
LogFC PK3CA_HUMAN (protein P42336 GN=PIK3CA): -1.283
LogFC MTOR_HUMAN (protein P42345 GN=MTOR): -0.7122
LogFC CNDD3_HUMAN (protein P42695 GN=NCAPD3): -2.052
LogFC THIM_HUMAN (protein P42765 GN=ACAA2): 1.09
Direction KI67_HUMAN (protein P46013): Down
LogFC KI67_HUMAN (protein P46013): -1.787
LogFC ATRX_HUMAN (protein P46100 GN=ATRX): -0.9089
Direction IF2M_HUMAN (protein P46199): Down
LogFC IF2M_HUMAN (protein P46199): -0.8269
LogFC MP2K3_HUMAN (protein P46734 GN=MAP2K3): 1.1042
Direction STT3A_HUMAN (protein P46977): Down
LogFC STT3A_HUMAN (protein P46977): -0.5679
LogFC PA24A_HUMAN (protein P47712 GN=PLA2G4A): 2.918
LogFC IF1AX_HUMAN (protein P47813 GN=EIF1AX): 0.7555
Direction AGRE5_HUMAN (protein P48960): Down
LogFC AGRE5_HUMAN (protein P48960): -1.142
LogFC UB2R1_HUMAN (protein P49427 GN=CDC34): 1.5155
Direction SYHM_HUMAN (protein P49590): Down
LogFC SYHM_HUMAN (protein P49590): -1.4939
LogFC VPS41_HUMAN (protein P49754 GN=VPS41): 1.216
Direction NU153_HUMAN (protein P49790): Down
LogFC NU153_HUMAN (protein P49790): -1.0035
Direction DNLI3_HUMAN (protein P49916): Down
LogFC DNLI3_HUMAN (protein P49916): -1.6
LogFC GBG4_HUMAN (protein P50150 GN=GNG4): 2.6107
Direction SERPH_HUMAN (protein P50454): Down
LogFC SERPH_HUMAN (protein P50454): -1.017
Direction KNTC1_HUMAN (protein P50748): Down
LogFC KNTC1_HUMAN (protein P50748): -0.8446
LogFC BCAM_HUMAN (protein P50895 GN=BCAM): 1.4044
LogFC PLCD1_HUMAN (protein P51178 GN=PLCD1): 0.5988
LogFC SMCA2_HUMAN (protein P51531 GN=SMARCA2): -1.3906
Direction SMCA4_HUMAN (protein P51532): Down
LogFC SMCA4_HUMAN (protein P51532): -1.513
LogFC TPMT_HUMAN (protein P51580 GN=TPMT): 1.506
LogFC IRAK1_HUMAN (protein P51617 GN=IRAK1): -0.8883
Direction GPM6A_HUMAN (protein P51674): Down
LogFC GPM6A_HUMAN (protein P51674): -2.493
Direction STA5B_HUMAN (protein P51692): Down
LogFC STA5B_HUMAN (protein P51692): -2.183
LogFC PLXA3_HUMAN (protein P51805 GN=PLXNA3): 0.8663
Direction CCNH_HUMAN (protein P51946): Down
LogFC CCNH_HUMAN (protein P51946): -0.7175
LogFC UB2E1_HUMAN (protein P51965 GN=UBE2E1): -1.604
Direction IMA1_HUMAN (protein P52292): Down
LogFC IMA1_HUMAN (protein P52292): -0.7516
LogFC EFNB2_HUMAN (protein P52799 GN=EFNB2): 1.665
LogFC ARFP1_HUMAN (protein P53367 GN=ARFIP1): 1.754
Direction ACLY_HUMAN (protein P53396): Down
LogFC ACLY_HUMAN (protein P53396): -0.3852
Direction SC5A3_HUMAN (protein P53794): Down
LogFC SC5A3_HUMAN (protein P53794): -1.548
LogFC SMTN_HUMAN (protein P53814 GN=SMTN): -1.694
LogFC HSP72_HUMAN (protein P54652 GN=HSPA2): 3.712
LogFC SNAA_HUMAN (protein P54920 GN=NAPA): 0.6489
Direction IF5_HUMAN (protein P55010): Down
LogFC IF5_HUMAN (protein P55010): -0.5429
LogFC S12A2_HUMAN (protein P55011 GN=SLC12A2): 0.5141
LogFC XPO2_HUMAN (protein P55060 GN=CSE1L): -0.4776
LogFC BI1_HUMAN (protein P55061 GN=TMBIM6): -0.6524
Direction MAZ_HUMAN (protein P56270): Down
LogFC MAZ_HUMAN (protein P56270): -1.733
Direction SC61G_HUMAN (protein P60059): Down
